According to patent publication US20230009608A1, “GRK2 INHIBITORS AND USES THEREOF” (Cygnal Therapeutics, Inc., priority 2020, published 2023):

Columns and labels:
[1] = biological target: T1, GRK2 (Homo sapiens, UniProt P25098); assay: GRK2 Inhibition Assay (TR-FRET, Example 7); type: biochemical; settings: read-out: B: Enzymatic GRK2: IC50 (nM) (Example 7)
T1 construct: purchased SignalChem A14-10G
T1 sequence (P25098 1-689): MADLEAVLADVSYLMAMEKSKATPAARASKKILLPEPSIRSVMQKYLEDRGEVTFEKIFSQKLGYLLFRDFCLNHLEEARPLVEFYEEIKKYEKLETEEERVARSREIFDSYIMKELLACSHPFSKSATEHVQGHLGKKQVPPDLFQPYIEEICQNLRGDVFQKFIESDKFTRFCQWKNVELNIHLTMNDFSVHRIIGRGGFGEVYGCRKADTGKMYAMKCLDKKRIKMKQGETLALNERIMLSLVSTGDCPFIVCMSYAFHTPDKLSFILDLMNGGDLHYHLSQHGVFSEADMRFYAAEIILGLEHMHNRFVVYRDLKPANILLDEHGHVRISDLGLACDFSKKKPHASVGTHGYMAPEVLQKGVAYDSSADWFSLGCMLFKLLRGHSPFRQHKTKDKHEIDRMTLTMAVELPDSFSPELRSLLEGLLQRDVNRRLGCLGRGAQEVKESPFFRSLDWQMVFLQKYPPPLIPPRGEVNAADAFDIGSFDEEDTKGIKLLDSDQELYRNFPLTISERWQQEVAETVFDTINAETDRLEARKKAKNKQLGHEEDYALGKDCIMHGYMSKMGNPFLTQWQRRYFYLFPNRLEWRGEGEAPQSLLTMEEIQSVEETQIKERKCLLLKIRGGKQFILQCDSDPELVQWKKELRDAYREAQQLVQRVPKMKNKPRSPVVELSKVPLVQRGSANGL
Summary of the method: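 GRK2 at 1 nM preincubated 30 min with compound, then reacted 90 min at room temperature with 7 μM ATP and 50 nM ULight-TopoIIα in HEPES/MgCl2/DTT buffer. Phosphorylation detected by TR-FRET after Eu anti-TopoIIα and EDTA addition, 60 min.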

[2] = biological target: T1, GRK2; assay: ADPGlo GRK2 Inhibition Assay (Example 8); type: biochemical; settings: read-out: A: Enzymatic GRK2: IC50 (nM) (Example 8)
Summary of the method: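 GRK2 (15 nM 2× enzyme solution) was preincubated 15 min with compound, then reacted 180 min at room temperature with 2× mix of 20 μM ATP plus GRKtide in HEPES pH 7.5, MgCl2, Tween-20, DTT. ADP was detected by ADP-Glo luminescence. Percent inhibition was normalised to enzyme and no-enzyme controls, with dose-response curves from threefold dilutions starting at 100 μM.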

[3] = system: PAXF1657 control empty vector cell line; assay: 7-day proliferation assay, PAXF1657 control empty vector cell line (Example 9); type: cell-based; settings: 168 h; Cell Line: PAXF1657 empty vector (EV) cell line; 7-day; read-out: C: 7-day proliferation assay: IC50 GeoMean
Summary of the method: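 Seven-day growth in PAXF1657 lines engineered for GRK2 overexpression or knockout, measured by CellTiter-Glo; compounds tested at 30 μM-0.0002 μM final and replenished once at day 3.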

[4] = Enzyme Assay B, TR-FRET (Example 7)
[5] = Enzyme Assay A, ADPGlo (Example 8)

Structure (SMILES) | IC50 [1, 4] | IC50 [2, 5] | IC50 [3] | IC50 ([1]; TR-FRET GRK2 enzyme assay) | IC50 ([2]; ADPGlo GRK2 enzyme assay)
Cc1ccc(C(CO)NC(=O)c2cccc(NCc3nnc(-c4ccncn4)n3C)c2)cc1 (stereo not drawn) [drawing 575] | 8.1 nM | 3.3 nM | > 30000 nM | – | –
Cc1cc2c(cc1CNC(=O)c1ccnc(NCc3nnc(-c4ccncn4)n3C)c1)OCCO2 | 11.6 nM | 22.1 nM | > 330 nM | – | –
Cc1cc2c(cc1CNC(=O)c1cccc(NCc3nnc(-c4ccncn4)n3C)c1)OCCO2 [drawing 588] | 3.3 nM | 0.5 nM | 996 nM | – | –
Cc1cccc([C@H](CO)NC(=O)c2cccc(NCc3nnc(-c4ccncn4)n3CCO)c2)c1 | < 0.8 nM | 2.32 nM | 50 nM | – | –
Cn1c(CNc2cccc(C(=O)NCc3cnccc3Cl)c2)nnc1-c1ccncn1 [drawing 570] | 17 nM | 4.3 nM | 1190 nM | – | –
Cn1c(CNc2cccc(C(=O)N[C@@H]3CCOc4cccnc43)c2)nnc1-c1ccncn1 | 7 nM | 1.3 nM | 192 nM | – | –
Cc1ccn2c(CNC(=O)c3cccc(NCc4nnc(-c5ccncn5)n4C)c3)cnc2c1 [drawing 620] | 20 nM | 3 nM | 5600 nM | – | –
CCc1cnccc1CNC(=O)c1cccc(NCc2nnc(-c3ccncn3)n2[C@@H]2CCC[C@H](NC)C2)c1 | – | – | > 4570 nM | 57 nM | 456 nM
CNS(=O)(=O)c1cccc(F)c1CNC(=O)c1cccc(NCc2nnc(-c3ccncn3)n2C)c1 | – | – | 732 nM | 12.7 nM | 7.36 nM
CCOc1ccc(C(CO)NC(=O)c2cccc(NCc3nnc(-c4ccncn4)n3C)c2)cn1 (stereo not drawn) [drawing 577] | 12 nM | 1.8 nM | > 30000 nM | – | –
Cc1ccc2ncc(CNC(=O)c3cccc(NCc4nnc(-c5ccncn5)n4C)c3)n2c1 [drawing 596] | 7.2 nM | 2.8 nM | > 30000 nM | – | –
Cn1c(CNc2cccc(C(=O)N[C@H]3c4ccccc4C[C@H]3O)c2)nnc1-c1ccncn1 | 24 nM | 7.3 nM | 1410 nM | – | –
O=C(N[C@H]1CCOc2ccccc21)c1cccc(NCc2nnc(-c3ccncn3)n2CCO)c1 | 2.5 nM | 4.1 nM | 104 nM | – | –
O=C(N[C@@H]1COc2ccccc21)c1cccc(NCc2nnc(-c3ccncn3)n2CCO)c1 | < 3.6 nM | 1.95 nM | 90 nM | – | –
Cn1c(CNc2cccc(C(=O)NCc3ccc(-n4nccn4)cc3)c2)nnc1-c1ccncn1 [drawing 601] | 20 nM | 2.1 nM | > 30000 nM | – | –
Cc1cccc2nnc(CNC(=O)c3cccc(NCc4nnc(-c5ccncn5)n4C)c3)n12 | 2.1 nM | 0.79 nM | > 30000 nM | – | –
CCS(=O)(=O)c1ccc(CNC(=O)c2cccc(NCc3nnc(-c4ccncn4)n3C)c2)cc1 [drawing 618] | 21 nM | 6.2 nM | > 30000 nM | – | –
C#COc1cccc(OS(=O)(=O)F)c1CNC(=O)c1cccc(NCc2nnc(-c3ccncc3)[nH]2)c1 | 7.7 nM | 15.5 nM | 13300 nM | – | –
COc1ncccc1CNC(=O)c1cccc(NCc2nnc(-c3ccncc3)[nH]2)c1 [drawing 424] | 5.8 nM | 12 nM | > 11000 nM | – | –
Cn1c(CNc2cc(C(=O)N[C@H]3COc4ccccc43)ccn2)nnc1-c1ccncn1 | 15.3 nM | 12.9 nM | 476 nM | – | –
